#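 Step 1: Grow cells in 96-well plates. Step 2: Expose to compound for 48 hours at 5 concentrations. Step 3: Interpolate endpoints linearly; if unreached, use highest concentration. TGI denotes the concentration required for complete inhibition of growth.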
# Tests used:
# Assay in all cases: inhibition of tumour cell growth, NCI panel, 48 h
# A498 renal = system: A498 renal
# A549 NSCLC = system: A549 NSCLC
# ACHN renal = system: ACHN renal
# CCRF-CEM leukemia = system: CCRF-CEM leukemia
# COLO 205 colon = system: COLO 205 colon
# DU-145 prostate = system: DU-145 prostate
# HCC-2998 colon = system: HCC-2998 colon
# HCT-116 colon = system: HCT-116 colon
# HCT-15 colon = system: HCT-15 colon
# HOP-92 NSCLC = system: HOP-92 NSCLC
# HS 578T breast = system: HS 578T breast
# HT29 colon = system: HT29 colon
# KM12 colon = system: KM12 colon
# LOX IMVI melanoma = system: LOX IMVI melanoma
# MCF7 breast = system: MCF7 breast
# MDA-MB-231 breast = system: MDA-MB-231 breast
# MDA-MB-435 = system: MDA-MB-435
# MDA-N = system: MDA-N
# MOLT-4 leukemia = system: MOLT-4 leukemia
# NCI-H226 lung = system: NCI-H226 lung
# NCI-H23 lung = system: NCI-H23 lung
# NCI-H460 lung = system: NCI-H460 lung
# NCI-H522 lung = system: NCI-H522 lung
# NCI/ADR-RES ovarian = system: NCI/ADR-RES ovarian
# OVCAR-3 ovarian = system: OVCAR-3 ovarian
# OVCAR-4 ovarian = system: OVCAR-4 ovarian
# OVCAR-8 ovarian = system: OVCAR-8 ovarian
# PC-3 prostate = system: PC-3 prostate
# RXF 393 renal = system: RXF 393 renal
# SF-268 CNS = system: SF-268 CNS
# SF-295 CNS = system: SF-295 CNS
# SK-MEL-28 melanoma = system: SK-MEL-28 melanoma
# SK-MEL-5 melanoma = system: SK-MEL-5 melanoma
# SK-OV-3 ovarian = system: SK-OV-3 ovarian
# SN12C renal = system: SN12C renal
# SNB-19 CNS = system: SNB-19 CNS
# SNB-75 CNS = system: SNB-75 CNS
# SR leukemia = system: SR leukemia
# SW-620 colon = system: SW-620 colon
# T-47D breast = system: T-47D breast
# TK-10 renal = system: TK-10 renal
# U251 CNS = system: U251 CNS
# UACC-257 melanoma = system: UACC-257 melanoma
# UO-31 renal = system: UO-31 renal
# 786-0 renal = system: 786-0 renal
# EKVX NSCLC = system: EKVX NSCLC
# HL-60(TB) leukemia = system: HL-60(TB) leukemia
# HOP-62 NSCLC = system: HOP-62 NSCLC
# K-562 leukemia = system: K-562 leukemia
# M14 melanoma = system: M14 melanoma
# MALME-3M melanoma = system: MALME-3M melanoma
# OVCAR-5 ovarian = system: OVCAR-5 ovarian
# RPMI-8226 leukemia = system: RPMI-8226 leukemia
# SF-539 CNS = system: SF-539 CNS
# SK-MEL-2 melanoma = system: SK-MEL-2 melanoma
# UACC-62 melanoma = system: UACC-62 melanoma
# BT-549 breast = system: BT-549 breast
# CAKI-1 renal = system: CAKI-1 renal
compound,measurement,setting,value
CC1(CO)COC(C)(C)OC1,TGI,A498 renal,> 100 µM
same,TGI,A549 NSCLC,> 100 µM
same,TGI,ACHN renal,> 100 µM
same,TGI,CCRF-CEM leukemia,> 100 µM
same,TGI,COLO 205 colon,> 100 µM
same,TGI,DU-145 prostate,> 100 µM
same,TGI,HCC-2998 colon,> 100 µM
same,TGI,HCT-116 colon,> 100 µM
same,TGI,HCT-15 colon,> 100 µM
same,TGI,HOP-92 NSCLC,> 100 µM
same,TGI,HS 578T breast,> 100 µM
same,TGI,HT29 colon,> 100 µM
same,TGI,KM12 colon,> 100 µM
same,TGI,LOX IMVI melanoma,> 100 µM
same,TGI,MCF7 breast,> 100 µM
same,TGI,MDA-MB-231 breast,> 100 µM
same,TGI,MDA-MB-435,> 100 µM
same,TGI,MDA-N,> 100 µM
same,TGI,MOLT-4 leukemia,> 100 µM
same,TGI,NCI-H226 lung,> 100 µM
same,TGI,NCI-H23 lung,> 100 µM
same,TGI,NCI-H460 lung,> 100 µM
same,TGI,NCI-H522 lung,> 100 µM
same,TGI,NCI/ADR-RES ovarian,> 100 µM
same,TGI,OVCAR-3 ovarian,> 100 µM
same,TGI,OVCAR-4 ovarian,> 100 µM
same,TGI,OVCAR-8 ovarian,> 100 µM
same,TGI,PC-3 prostate,> 100 µM
same,TGI,RXF 393 renal,> 100 µM
same,TGI,SF-268 CNS,> 100 µM
same,TGI,SF-295 CNS,> 100 µM
same,TGI,SK-MEL-28 melanoma,> 100 µM
same,TGI,SK-MEL-5 melanoma,> 100 µM
same,TGI,SK-OV-3 ovarian,> 100 µM
same,TGI,SN12C renal,> 100 µM
same,TGI,SNB-19 CNS,> 100 µM
same,TGI,SNB-75 CNS,> 100 µM
same,TGI,SR leukemia,> 100 µM
same,TGI,SW-620 colon,> 100 µM
same,TGI,T-47D breast,> 100 µM
same,TGI,TK-10 renal,> 100 µM
same,TGI,U251 CNS,> 100 µM
same,TGI,UACC-257 melanoma,> 100 µM
same,TGI,UO-31 renal,> 100 µM
Oc1ccc(O)c(Cc2ccccc2)c1,TGI,786-0 renal,33.7 µM
same,TGI,A498 renal,> 100 µM
same,TGI,A549 NSCLC,> 100 µM
same,TGI,ACHN renal,28.7 µM
same,TGI,CCRF-CEM leukemia,> 100 µM
same,TGI,COLO 205 colon,32.6 µM
same,TGI,DU-145 prostate,22.8 µM
same,TGI,EKVX NSCLC,> 100 µM
same,TGI,HCC-2998 colon,> 100 µM
same,TGI,HCT-15 colon,29.1 µM
same,TGI,HL-60(TB) leukemia,4.14 µM
same,TGI,HOP-62 NSCLC,60.3 µM
same,TGI,HOP-92 NSCLC,35.6 µM
same,TGI,HS 578T breast,> 100 µM
same,TGI,HT29 colon,> 100 µM
same,TGI,K-562 leukemia,25.8 µM
same,TGI,KM12 colon,65.2 µM
same,TGI,LOX IMVI melanoma,41 µM
same,TGI,M14 melanoma,73.9 µM
same,TGI,MALME-3M melanoma,88.9 µM
same,TGI,MCF7 breast,29.4 µM
same,TGI,MDA-MB-231 breast,46.6 µM
same,TGI,MDA-MB-435,42 µM
same,TGI,MDA-N,41.5 µM
same,TGI,MOLT-4 leukemia,22.8 µM
same,TGI,NCI-H226 lung,57.2 µM
same,TGI,NCI-H23 lung,> 100 µM
same,TGI,NCI-H460 lung,49.5 µM
same,TGI,NCI/ADR-RES ovarian,42.9 µM
same,TGI,OVCAR-3 ovarian,7.8 µM
same,TGI,OVCAR-4 ovarian,27.2 µM
same,TGI,OVCAR-5 ovarian,> 100 µM
same,TGI,OVCAR-8 ovarian,33.9 µM
same,TGI,PC-3 prostate,> 100 µM
same,TGI,RPMI-8226 leukemia,21.3 µM
same,TGI,SF-268 CNS,27.8 µM
same,TGI,SF-295 CNS,> 100 µM
same,TGI,SF-539 CNS,23 µM
same,TGI,SK-MEL-2 melanoma,37.3 µM
same,TGI,SK-MEL-28 melanoma,> 100 µM
same,TGI,SK-MEL-5 melanoma,37.9 µM
same,TGI,SK-OV-3 ovarian,> 100 µM
same,TGI,SN12C renal,38.6 µM
same,TGI,SNB-19 CNS,> 100 µM
same,TGI,SR leukemia,14.5 µM
same,TGI,SW-620 colon,56.9 µM
same,TGI,T-47D breast,11.8 µM
same,TGI,TK-10 renal,51.3 µM
same,TGI,U251 CNS,45.8 µM
same,TGI,UACC-257 melanoma,99.5 µM
same,TGI,UACC-62 melanoma,56.1 µM
same,TGI,UO-31 renal,28.4 µM
Cc1cc2c(O)c(c1)COCc1cc(C)cc(c1O)COCc1cc(C)cc(c1O)COC2,TGI,786-0 renal,> 100 µM
same,TGI,A498 renal,> 100 µM
same,TGI,A549 NSCLC,> 100 µM
same,TGI,ACHN renal,> 100 µM
same,TGI,BT-549 breast,> 100 µM
same,TGI,CAKI-1 renal,> 100 µM
same,TGI,CCRF-CEM leukemia,> 100 µM
same,TGI,COLO 205 colon,> 100 µM
same,TGI,DU-145 prostate,> 100 µM
same,TGI,EKVX NSCLC,> 100 µM
same,TGI,HCC-2998 colon,> 100 µM
same,TGI,HCT-116 colon,> 100 µM
same,TGI,HCT-15 colon,> 100 µM
same,TGI,HL-60(TB) leukemia,> 100 µM
same,TGI,HOP-62 NSCLC,> 100 µM
same,TGI,HOP-92 NSCLC,> 100 µM
same,TGI,HT29 colon,> 100 µM
same,TGI,K-562 leukemia,> 100 µM
same,TGI,KM12 colon,> 100 µM
same,TGI,M14 melanoma,> 100 µM
same,TGI,MALME-3M melanoma,> 100 µM
same,TGI,MCF7 breast,> 100 µM
same,TGI,MDA-MB-231 breast,> 100 µM
same,TGI,MDA-MB-435,> 100 µM
same,TGI,MDA-N,> 100 µM
same,TGI,MOLT-4 leukemia,> 100 µM
same,TGI,NCI-H226 lung,> 100 µM
same,TGI,NCI-H23 lung,> 100 µM
same,TGI,NCI-H460 lung,> 100 µM
same,TGI,NCI-H522 lung,> 100 µM
same,TGI,NCI/ADR-RES ovarian,> 100 µM
same,TGI,OVCAR-3 ovarian,> 100 µM
same,TGI,OVCAR-4 ovarian,> 100 µM
same,TGI,OVCAR-5 ovarian,> 100 µM
same,TGI,OVCAR-8 ovarian,> 100 µM
same,TGI,PC-3 prostate,> 100 µM
same,TGI,RPMI-8226 leukemia,> 100 µM
same,TGI,RXF 393 renal,> 100 µM
same,TGI,SF-268 CNS,> 100 µM
same,TGI,SF-295 CNS,> 100 µM
same,TGI,SF-539 CNS,> 100 µM
same,TGI,SK-MEL-2 melanoma,> 100 µM
same,TGI,SK-MEL-28 melanoma,> 100 µM
same,TGI,SK-OV-3 ovarian,> 100 µM
same,TGI,SN12C renal,> 100 µM
same,TGI,SNB-19 CNS,> 100 µM
same,TGI,SNB-75 CNS,> 100 µM
same,TGI,SR leukemia,> 100 µM
same,TGI,SW-620 colon,> 100 µM
same,TGI,T-47D breast,> 100 µM
same,TGI,U251 CNS,> 100 µM
same,TGI,UACC-257 melanoma,> 100 µM
same,TGI,UACC-62 melanoma,> 100 µM
same,TGI,UO-31 renal,> 100 µM
